Assay results as given in patent US11254663B2 (BRISTOL-MYERS SQUIBB COMPANY, priority 2019, dated 2022).

Target: FXR (Homo sapiens (Human), UniProt Q96RI1)
Test: FXR EC50 (FXR agonist potency reported with each Example)
Type: cell-based

Sequence of FXR (Q96RI1 262-486): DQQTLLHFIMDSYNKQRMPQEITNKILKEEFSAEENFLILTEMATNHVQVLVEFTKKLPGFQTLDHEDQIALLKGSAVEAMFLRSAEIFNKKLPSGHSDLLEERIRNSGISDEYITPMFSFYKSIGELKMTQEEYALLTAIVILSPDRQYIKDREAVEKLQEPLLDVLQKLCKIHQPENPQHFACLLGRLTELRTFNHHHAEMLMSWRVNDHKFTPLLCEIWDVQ

Structure (SMILES) | EC50 [nM]
CC(N(C(=O)C12CC(F)(C1)C2)c1cccc(-c2nc(C3CC3)no2)c1)C12CCC(c3nc(C4CC4)no3)(CC1)CC2 (single isomer, unassigned) [Example 217, N-(1-(4-(3-cyclopropyl-1,2,4-oxadiazol-5-yl)bicyclo[2.2.2]octan-1-yl)ethyl)-N-(3-(3-cyclopropyl-1,2,4-oxadiazol-5-yl)phenyl)-3-fluorobicyclo[1.1.1]pentane-1-carboxamide] | 1440
O=C(N(CC12CCC(c3nc(C4CC4)no3)(CC1)CC2)c1cccc(-c2nc(CC3CC3)no2)c1)C12CC(F)(C1)C2 [Example 65, N-((4-(3-cyclopropyl-1,2,4-oxadiazol-5-yl)bicyclo[2.2.2]octan-1-yl)methyl)-N-(3-(3-(cyclopropylmethyl)-1,2,4-oxadiazol-5-yl)phenyl)-3-fluorobicyclo[1.1.1]pentane-1-carboxamide] | 142
O=C(C1CC(F)(F)C1)N(CC12CCC(c3nc(CC4CC4)no3)(CC1)CC2)c1cccc(-c2nc(C3CC3)no2)c1 [Example 70, N-(3-(3-cyclopropyl-1,2,4-oxadiazol-5-yl)phenyl)-N-((4-(3-(cyclopropylmethyl)-1,2,4-oxadiazol-5-yl)bicyclo[2.2.2]octan-1-yl)methyl)-3,3-difluorocyclobutane-1-carboxamide] | 598
Cn1nc(-c2cccc(N(CC34CCC(c5nc(C6CC6)no5)(CC3)CC4)C(=O)C3CCC(F)(F)C3)c2)cc1C1CC1 (stereo not drawn) [Example 77, N-((4-(3-cyclopropyl-1,2,4-oxadiazol-5-yl)bicyclo[2.2.2]octan-1-yl)methyl)-N-(3-(5-cyclopropyl-1-methyl-1H-pyrazol-3-yl)phenyl)-3,3-difluorocyclopentane-1-carboxamide] | 429
O=C(C1CCC(F)(F)C1)N(CC12CCC(c3nc(CC4CC4)no3)(CC1)CC2)c1cccc(-c2nc(CC3CC3)no2)c1 (stereo not drawn) [Example 62, N-((4-(3-(cyclopropylmethyl)-1,2,4-oxadiazol-5-yl)bicyclo[2.2.2]octan-1-yl)methyl)-N-(3-(3-(cyclopropylmethyl)-1,2,4-oxadiazol-5-yl)phenyl)-3,3-difluorocyclopentane-1-carboxamide] | 363
CCc1noc(-c2cccc(N(CC34CCC(c5nc(C)no5)(CC3)CC4)C(=O)C34CC(F)(C3)C4)c2)n1 [Example 3, N-(3-(3-ethyl-1,2,4-oxadiazol-5-yl)phenyl)-3-fluoro-N-((4-(3-methyl-1,2,4-oxadiazol-5-yl)bicyclo[2.2.2]octan-1-yl)methyl)bicyclo[1.1.1]pentane-1-carboxamide] | 346
CC(C)(C)c1nc(-c2cccc(N(CC34CCC(c5nc(C6CC6)no5)(CC3)CC4)C(=O)C34CC(F)(C3)C4)c2)no1 [Example 107, N-(3-(5-(tert-butyl)-1,2,4-oxadiazol-3-yl)phenyl)-N-((4-(3-cyclopropyl-1,2,4-oxadiazol-5-yl)bicyclo[2.2.2]octan-1-yl)methyl)-3-fluorobicyclo[1.1.1]pentane-1-carboxamide] | 18
O=C([C@H]1C[C@](O)(C(F)(F)F)C1)N(CC12CCC(c3nc(C4CC4)no3)(CC1)CC2)c1cccc(-c2nc(C(F)F)co2)c1 [Example 42, (1s, 3s)-N-((4-(3-cyclopropyl-1,2,4-oxadiazol-5-yl)bicyclo[2.2.2]octan-1-yl)methyl)-N-(3-(4-(difluoromethyl)oxazol-2-yl)phenyl)-3-hydroxy-3-(trifluoromethyl)cyclobutane-1-carboxamide] | 613
O=C(N(CC12CCC(c3nc(C4CC4)no3)(CC1)CC2)c1cccc(-c2cnc(C3CC3)o2)c1)C12CC(F)(C1)C2 [Example 23, N-((4-(3-cyclopropyl-1,2,4-oxadiazol-5-yl)bicyclo[2.2.2]octan-1-yl)methyl)-N-(3-(2-cyclopropyloxazol-5-yl)phenyl)-3-fluorobicyclo[1.1.1]pentane-1-carboxamide] | 72
Cc1csc(-c2cccc(N(CC34CCC(c5nc(C6CC6)no5)(CC3)CC4)C(=O)C34CC(F)(C3)C4)c2)n1 [Example 151, N-((4-(3-cyclopropyl-1,2,4-oxadiazol-5-yl)bicyclo[2.2.2]octan-1-yl)methyl)-3-fluoro-N-(3-(4-methylthiazol-2-yl)phenyl)bicyclo[1.1.1]pentane-1-carboxamide] | 79
O=C(N(CC12CCC(c3noc(C(F)F)n3)(CC1)CC2)c1cccc(-c2noc(C(F)F)n2)c1)C12CC(F)(C1)C2 [Example 184, N-((4-(5-(difluoromethyl)-1,2,4-oxadiazol-3-yl)bicyclo[2.2.2]octan-1-yl)methyl)-N-(3-(5-(difluoromethyl)-1,2,4-oxadiazol-3-yl)phenyl)-3-fluorobicyclo[1.1.1]pentane-1-carboxamide] | 58
O=C(C1CC(F)(F)C1)N(CC12CCC(c3nc(C4CC4)no3)(CC1)OC2)c1cccc(-c2cc(C3CC3)on2)c1 [Example 200, N-((1-(3-cyclopropyl-1,2,4-oxadiazol-5-yl)-2-oxabicyclo[2.2.2]octan-4-yl)methyl)-N-(3-(5-cyclopropylisoxazol-3-yl)phenyl)-3,3-difluorocyclobutane-1-carboxamide] | 526
CC1(c2nc(C34CCC(CN(C(=O)C56CC(F)(C5)C6)c5cccc(-c6nc(C7CC7)no6)c5)(CC3)CC4)no2)CC1 [Example 115, N-(3-(3-cyclopropyl-1,2,4-oxadiazol-5-yl)phenyl)-3-fluoro-N-((4-(5-(1-methylcyclopropyl)-1,2,4-oxadiazol-3-yl)bicyclo[2.2.2]octan-1-yl)methyl) bicyclo[1.1.1]pentane-1-carboxamide] | 35
O=C([C@H]1C[C@](O)(C(F)(F)F)C1)N(CC12CCC(c3nc(C4CC4)no3)(CC1)CC2)c1cccc(-c2nc(C3CC3)no2)c1 [Example 9, (1s, 3s)-N-((4-(3-cyclopropyl-1,2,4-oxadiazol-5-yl)bicyclo[2.2.2]octan-1-yl)methyl)-N-(3-(3-cyclopropyl-1,2,4-oxadiazol-5-yl)phenyl)-3-hydroxy-3-(trifluoromethyl)cyclobutane-1-carboxamide] | 153
COc1cc(-c2cccc(N(CC34CCC(c5nc(C)no5)(CC3)CC4)C(=O)C34CC(F)(C3)C4)c2)ccn1 [Example 228, 3-fluoro-N-(3-(2-methoxypyridin-4-yl)phenyl)-N-((4-(3-methyl-1,2,4-oxadiazol-5-yl)bicyclo[2.2.2]octan-1-yl)methyl)bicyclo[1.1.1]pentane-1-carboxamide] | 442
Cc1noc(-c2cccc(N(CC34CCC(c5ccc(C6CC6)cc5)(CC3)CC4)C(=O)C(C)C)c2)n1 [Example 1, N-((4-(4-cyclopropylphenyl)bicyclo[2.2.2]octan-1-yl)methyl)-N-(3-(3-methyl-1,2,4-oxadiazol-5-yl)phenyl)isobutyramide] | 1830
COC1(c2nc(-c3cccc(N(CC45CCC(c6nc(C7CC7)no6)(CC4)CC5)C(=O)C45CC(F)(C4)C5)c3)no2)CC1 [Example 147, N-((4-(3-cyclopropyl-1,2,4-oxadiazol-5-yl)bicyclo[2.2.2]octan-1-yl)methyl)-3-fluoro-N-(3-(5-(1-methoxycyclopropyl)-1,2,4-oxadiazol-3-yl)phenyl)bicyclo[1.1.1]pentane-1-carboxamide] | 79
CC(F)(F)c1nc(-c2cccc(N(CC34CCC(c5ccc(C(F)(F)F)cn5)(CC3)CC4)C(=O)C34CC(F)(C3)C4)c2)no1 [Example 190, N-(3-(5-(1,1-difluoroethyl)-1,2,4-oxadiazol-3-yl)phenyl)-3-fluoro-N-((4-(5-(trifluoromethyl)pyridin-2-yl)bicyclo[2.2.2]octan-1-yl)methyl)bicyclo[1.1.1]pentane-1-carboxamide] | 281
CCOc1nnc(-c2cccc(N(CC34CCC(c5nc(C6CC6)no5)(CC3)CC4)C(=O)C3CCC3)c2)o1 [Example 54, N-((4-(3-cyclopropyl-1,2,4-oxadiazol-5-yl)bicyclo[2.2.2]octan-1-yl)methyl)-N-(3-(5-ethoxy-1,3,4-oxadiazol-2-yl)phenyl)cyclobutanecarboxamide] | 215
O=C(N(CC12CCC(c3nc(C4CC4)no3)(CC1)CC2)c1cccc(-c2noc(C3CC3)n2)c1)C12CC(F)(C1)C2 [Example 104, N-(3-(5-cyclopropyl-1,2,4-oxadiazol-3-yl)phenyl)-N-((4-(3-cyclopropyl-1,2,4-oxadiazol-5-yl)bicyclo[2.2.2]octan-1-yl)methyl)-3-fluorobicyclo[1.1.1]pentane-1-carboxamide] | 60
COCc1nc(-c2cccc(N(CC34CCC(c5nc(C6CC6)no5)(CC3)CC4)C(=O)C34CC(F)(C3)C4)c2)cs1 [Example 72, N-((4-(3-cyclopropyl-1,2,4-oxadiazol-5-yl)bicyclo[2.2.2]octan-1-yl)methyl)-3-fluoro-N-(3-(2-(methoxymethyl)thiazol-4-yl)phenyl)bicyclo[1.1.1]pentane-1-carboxamide] | 166
CC1(c2nc(-c3cccc(N(CC45CCC(c6ccc(C(F)(F)F)cn6)(CC4)CC5)C(=O)C45CC(F)(C4)C5)c3)no2)CC1 [Example 186, 3-fluoro-N-(3-(5-(1-methylcyclopropyl)-1,2,4-oxadiazol-3-yl)phenyl)-N-((4-(5-(trifluoromethyl)pyridin-2-yl)bicyclo[2.2.2]octan-1-yl)methyl)bicyclo[1.1.1]pentane-1-carboxamide] | 625
O=C(N(CC12CCC(c3nc(CC4CC4)no3)(CC1)CC2)c1cccc(-c2nc(CC3CC3)no2)c1)C12CC(F)(C1)C2 [Example 61, N-((4-(3-(cyclopropylmethyl)-1,2,4-oxadiazol-5-yl)bicyclo[2.2.2]octan-1-yl)methyl)-N-(3-(3-(cyclopropylmethyl)-1,2,4-oxadiazol-5-yl)phenyl)-3-fluorobicyclo[1.1.1]pentane-1-carboxamide] | 99
O=C(N(CC12CCC(c3noc(C4(C(F)(F)F)CC4)n3)(CC1)CC2)c1cccc(-c2cn[nH]c2)c1)C12CC(F)(C1)C2 [Example 209, N-(3-(1H-pyrazol-4-yl)phenyl)-3-fluoro-N-((4-(5-(1-(trifluoromethyl)cyclopropyl)-1,2,4-oxadiazol-3-yl)bicyclo[2.2.2]octan-1-yl)methyl)bicyclo[1.1.1]pentane-1-carboxamide] | 152
